Data on one compound can be found in patent US20250243219A1, “MACROCYCLIC COMPOUNDS AND USES THEREOF” (Cypralis Limited, priority 2022, published 2025).

Data set [1] has as its system permeabilised HepG2 cells. Put plainly: Calcium retention capacity (CRC) assay in permeabilised HepG2 cells (MPTP opening). Type of data set: cell-based, human. Also noted: CRC [10 μM]: unit not given here. The conditions noted are these: compound at 10 μM. An outline of the steps:
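Digitonin-permeabilised HepG2 cells received trains of calcium pulses (typically 5 μM) monitored with Calcium Green-5N until buffering failed, marking permeability transition. Runs with and without compound; calcium retained at 10 μM compound expressed as ratio versus cyclosporin A positive control.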

Data set [2] can be described thus: Blood-brain barrier penetration, intravenous dosing. Format: in vivo, rodents (mice or rats). The conditions noted are these: 3 mg/kg intravenous. On the procedure: Test compounds were administered to rodents (mice or rats) either orally, subcutaneously or intravenously. To determine blood or plasma concentrations blood samples were taken at different time points and analysed for the concentration of test compound by LC/MS. Brain concentrations were measured by sacrificing animals and LC/MS analysis of brain homogenate.
The results for Compounds (2), (19), (6) and (27) are summarised in Table 6 showing concentrations of the Compounds in blood plasma and the brain.

Data set [3] relates to animal models of acute pancreatitis. As to conditions: Mukherjee et al., Gut Online, 12 Jun. 2015; cited from earlier work.
The next data set relates to SH-SY5Y cells. Description: Thapsigargin treated cell death assay in SH-SY5Y cells. Type of data set: cell-based, human. As to conditions: compound at 10 μM; positive = protection from cell death, negative = compound toxicity. The procedure, abridged: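 SH-SY5Y neuroblastoma cells given compound (typically 1, 3 and 10 μM, triplicate) 30 min before thapsigargin, with cyclosporin A (3 and 10 μM) as positive control. Cell death read kinetically over 24 h by CellTox Green DNA-binding fluorescence; values are % recovery at 10 μM, usually at 8 h, positive meaning protection.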

For a further data set, the system named is pancreatic acinar cells. Description: Protection of pancreatic acinar cells against TLCS toxicity (propidium iodide uptake, FIG. 1). Type of data set: cell-based. The conditions noted are these: propidium iodide uptake as measure of necrotic cells. An excerpt:
FIG. 1 propidium iodide (PI) up-take as a measure of the number of dead pancreatic acinar cells (through necrosis) as a percentage against a number of treatments with Compound (2) and cyclosporin A and controls in an in-vitro model based on pancreatic acinar cells against the toxicity of the bile acid taurolithocholic acid-3-sulphate (TLCS);
WO 2021/115299 (Zuo) discloses compounds that protect against acute kidney injury caused by many different causes. The same compounds are disclosed in U.S. Pat. No. 6,583,265 (C-Chem AG) as cyclophilin inhibitors. There is no enzyme inhibiting, receptor binding or ion channel activity known for these compounds other than inhibition of cyclophilins. It can therefore be concluded that the compounds of the present invention, which are potent cyclophilin inhibitors but have no activity on other enzymes or receptors, have the same spectrum of properties.
FIG. 1 illustrates two sets of results.

In a further data set the target is cyclophilin D (Homo sapiens (Human), UniProt P30405). Description: Functional peptidyl prolyl isomerase (PPIase) spectrophotometric assay, cyclophilin D. The conditions noted are these: second value of CypA/D cell; read-out: Ki CypD. Format: biochemical. The procedure, abridged:
(§1)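 Cuvette-based UV/Vis assay of PPIase-catalysed cis-to-trans isomerisation of a peptide substrate. First-order rate constants fitted to absorbance, background rate subtracted. Ki derived from rate constant versus inhibitor concentration, typically 6-point curves in duplicate.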

The target in a further data set is cyclophilin A (Homo sapiens (Human), UniProt P62937). Description: Functional peptidyl prolyl isomerase (PPIase) spectrophotometric assay, cyclophilin A. Type of data set: biochemical. As to conditions: first value of CypA/D cell. The procedure, abridged:
as §1

Molecules are shown by their SMILES. Read-outs that look alike come from different tables or passages of the source.

cyclophilin A, sequence (P62937 whole entry, species assumed): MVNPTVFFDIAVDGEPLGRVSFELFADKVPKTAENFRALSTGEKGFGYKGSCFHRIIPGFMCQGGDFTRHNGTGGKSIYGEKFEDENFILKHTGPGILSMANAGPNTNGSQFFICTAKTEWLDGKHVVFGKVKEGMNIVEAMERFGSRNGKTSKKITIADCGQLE
cyclophilin D, sequence (P30405 30-207, species assumed): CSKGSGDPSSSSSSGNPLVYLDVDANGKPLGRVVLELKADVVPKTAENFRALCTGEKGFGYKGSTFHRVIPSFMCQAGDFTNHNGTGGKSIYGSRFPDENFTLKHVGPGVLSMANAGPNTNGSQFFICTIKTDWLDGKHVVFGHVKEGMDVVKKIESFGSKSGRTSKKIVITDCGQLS

What is called Ki is the dissociation constant of the complex between target and ligand, obtained from inhibition or displacement. On to `CC(C)[C@@H]1OC(=O)C(C)(C)/C=C/c2ccc3ccc(nc3c2)N(C)NC(=O)[C@@H]2CCCN(N2)C(=O)[C@H](C)NC1=O` [Compound (2)], for which the “CRC [10 μM]” value in data set [1] (digitonin permeabilised HepG2 cells) is listed as 26. Moreover, in data set [1] (normalised to cyclosporin A, value in brackets), the “CRC [10 μM] (ratio vs CsA)” value is listed as 0.9875. Moreover, the Blood-brain barrier passage result in data set [2] is reported as “passed the blood-brain barrier”. Moreover, the concentration at 30 min in data set [2] (brain, read-out: Brain concentration) amounted to 170 ng/mL; in data set [2] (plasma, read-out: Plasma concentration) it was 222 ng/mL. For the same compound, the “Protection in animal models of acute pancreatitis” value in data set [3] is listed as “protective”. Moreover, in the data set with SH-SY5Y cells, the “SYSY [10 μM] % recovery” value was 40.4%. Moreover, the “Protection of pancreatic acinar cells against toxicity of TLCS” value in the data set on pancreatic acinar cells was “protect pancreatic acinar cells against the toxicity”. Also, the Ki is 0.017 µM on cyclophilin D and 0.005 µM at cyclophilin A.
